Values quoted from earlier work as cited in patent publication US20210361561A1, “A pouch product suitable for application in an oral cavity” (priority 2019, published 2021).

Key:
CB2 receptors = CB2 receptors (Homo sapiens, UniProt P34972); conditions: compared with CB1 receptors
CB1 receptors = CB1 receptors (Homo sapiens, UniProt P21554)
CB1 receptors, sequence (P21554 whole entry): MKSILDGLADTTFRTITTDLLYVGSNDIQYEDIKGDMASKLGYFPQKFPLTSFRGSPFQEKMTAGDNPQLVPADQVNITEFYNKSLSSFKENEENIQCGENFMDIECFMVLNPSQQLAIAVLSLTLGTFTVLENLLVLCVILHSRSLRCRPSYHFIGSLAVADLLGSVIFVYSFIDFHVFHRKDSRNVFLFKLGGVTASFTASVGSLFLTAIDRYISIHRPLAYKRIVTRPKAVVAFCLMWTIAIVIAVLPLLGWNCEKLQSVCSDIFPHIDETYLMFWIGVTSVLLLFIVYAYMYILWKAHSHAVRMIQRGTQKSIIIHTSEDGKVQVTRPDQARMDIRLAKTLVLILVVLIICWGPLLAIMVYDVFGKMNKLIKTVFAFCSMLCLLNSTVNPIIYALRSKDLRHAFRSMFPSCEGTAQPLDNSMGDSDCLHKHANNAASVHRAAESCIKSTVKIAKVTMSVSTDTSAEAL

CB2 receptors, sequence (P34972 whole entry): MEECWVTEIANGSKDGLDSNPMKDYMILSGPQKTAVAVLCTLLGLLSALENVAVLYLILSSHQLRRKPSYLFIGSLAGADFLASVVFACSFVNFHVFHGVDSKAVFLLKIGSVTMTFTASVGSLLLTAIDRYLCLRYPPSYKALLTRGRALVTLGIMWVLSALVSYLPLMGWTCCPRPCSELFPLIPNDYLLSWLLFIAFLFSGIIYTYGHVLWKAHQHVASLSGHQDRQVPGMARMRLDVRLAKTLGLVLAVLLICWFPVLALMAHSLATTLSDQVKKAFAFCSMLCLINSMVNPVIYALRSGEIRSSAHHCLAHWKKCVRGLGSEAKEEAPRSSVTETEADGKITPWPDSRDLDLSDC

CCCCCc1cc(O)c2c(c1)OC(C)(C)c1ccc(C)cc1-2 [CBN, 6,6,9-Trimethyl-3-pentyl-benzo[c]chromen-1-ol]
affinity to CB2 receptors (CB2 receptors): higher affinity | activity at the CB1 receptors (CB1 receptors): partial agonist | affinities relative to THC (CB1 receptors; CB1 and CB2 receptors): lower affinities relative to THC
